Laboratory results reported in ChEMBL document CHEMBL1671837, “[I]-Celecoxib Analogues as SPECT Tracers of Cyclooxygenase-2 in Inflammation” (ACS Med Chem Lett, 2011).
pIC50: −log10 of the molar value. Active and inactive are the calls of the source. The rule behind the calls is not given here.

Tests used:
[1] = target: T1, Prostaglandin G/H synthase 1 (Ovis aries, UniProt P05979); assay: Inhibition of ovine purified COX1 after 20 mins
T1 sequence (P05979 whole entry): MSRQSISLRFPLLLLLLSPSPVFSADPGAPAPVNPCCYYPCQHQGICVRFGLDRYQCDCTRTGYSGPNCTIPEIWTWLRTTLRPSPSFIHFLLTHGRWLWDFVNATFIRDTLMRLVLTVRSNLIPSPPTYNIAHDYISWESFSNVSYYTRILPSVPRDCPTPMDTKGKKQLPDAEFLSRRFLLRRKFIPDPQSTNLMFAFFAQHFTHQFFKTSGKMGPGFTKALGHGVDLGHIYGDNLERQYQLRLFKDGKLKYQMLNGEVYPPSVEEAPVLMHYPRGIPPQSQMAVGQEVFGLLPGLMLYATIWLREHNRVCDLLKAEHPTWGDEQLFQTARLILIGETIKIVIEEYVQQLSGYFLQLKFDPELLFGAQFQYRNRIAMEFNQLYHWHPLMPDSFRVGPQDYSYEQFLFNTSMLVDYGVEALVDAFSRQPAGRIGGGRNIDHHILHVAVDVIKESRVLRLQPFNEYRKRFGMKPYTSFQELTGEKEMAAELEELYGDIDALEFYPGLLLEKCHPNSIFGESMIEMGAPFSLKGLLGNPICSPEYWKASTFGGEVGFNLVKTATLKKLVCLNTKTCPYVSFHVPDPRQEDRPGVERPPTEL

[2] = target: T2, Prostaglandin G/H synthase 1 (Mus musculus) (UniProt P22437); assay: Inhibition of COX1 in mouse LPS-stimulated RAW264.7 cells at up to 5 uM after 30 mins; assay type: cell-based
T2 sequence (whole entry): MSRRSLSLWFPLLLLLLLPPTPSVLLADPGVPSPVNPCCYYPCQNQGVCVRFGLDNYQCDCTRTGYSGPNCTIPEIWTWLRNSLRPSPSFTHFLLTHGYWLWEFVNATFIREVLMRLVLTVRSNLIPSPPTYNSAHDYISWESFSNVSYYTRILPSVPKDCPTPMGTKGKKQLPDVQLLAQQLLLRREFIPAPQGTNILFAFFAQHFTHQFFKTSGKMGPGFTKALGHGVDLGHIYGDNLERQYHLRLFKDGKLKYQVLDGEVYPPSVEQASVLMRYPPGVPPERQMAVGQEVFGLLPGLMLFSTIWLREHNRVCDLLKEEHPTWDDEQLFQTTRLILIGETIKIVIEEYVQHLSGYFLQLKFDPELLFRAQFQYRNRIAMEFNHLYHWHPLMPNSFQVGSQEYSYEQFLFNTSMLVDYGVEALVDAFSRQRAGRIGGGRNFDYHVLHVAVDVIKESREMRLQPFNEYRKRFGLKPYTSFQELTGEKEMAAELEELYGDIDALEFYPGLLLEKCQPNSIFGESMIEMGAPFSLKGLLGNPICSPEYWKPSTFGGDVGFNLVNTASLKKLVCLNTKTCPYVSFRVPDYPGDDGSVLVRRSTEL

[3] = target: T3, Prostaglandin G/H synthase 2 (Mus musculus, UniProt Q05769); assay: Inhibition of COX2 in mouse LPS-stimulated RAW264.7 cells after 30 mins; assay type: cell-based
T3 sequence (Q05769 whole entry): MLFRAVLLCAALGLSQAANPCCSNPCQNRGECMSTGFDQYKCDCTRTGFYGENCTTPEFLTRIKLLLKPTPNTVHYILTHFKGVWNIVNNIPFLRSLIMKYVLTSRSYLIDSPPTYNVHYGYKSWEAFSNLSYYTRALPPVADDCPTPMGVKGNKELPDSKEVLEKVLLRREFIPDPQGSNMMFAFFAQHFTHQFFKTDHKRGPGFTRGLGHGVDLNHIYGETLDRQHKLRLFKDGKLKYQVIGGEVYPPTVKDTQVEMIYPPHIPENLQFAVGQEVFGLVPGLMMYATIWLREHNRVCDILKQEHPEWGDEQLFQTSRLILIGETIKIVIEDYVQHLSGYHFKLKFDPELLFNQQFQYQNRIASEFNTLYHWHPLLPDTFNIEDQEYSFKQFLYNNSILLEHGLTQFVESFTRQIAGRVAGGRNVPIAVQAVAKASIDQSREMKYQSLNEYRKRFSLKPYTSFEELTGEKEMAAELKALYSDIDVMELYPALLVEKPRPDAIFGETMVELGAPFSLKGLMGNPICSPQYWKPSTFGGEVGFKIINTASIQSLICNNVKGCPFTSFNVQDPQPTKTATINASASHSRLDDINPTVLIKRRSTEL

Row | pIC50 [1] | inhibition [2] | pIC50 [3] | Structure (SMILES)
1 | < 5.40 |  |  | COC(=O)c1cc(-c2cccc(I)c2)n(-c2ccc(S(N)(=O)=O)cc2)n1
2 | < 5.40 |  |  | CS(=O)(=O)c1ccc(-n2nc(C(F)(F)F)cc2-c2cccc(I)c2)cc1
3 | < 5.40 |  |  | COC(=O)c1cc(-c2cccc(I)c2)n(-c2ccc(S(C)(=O)=O)cc2)n1
4 | < 5.40 |  | 5.57 | CCOC(=O)c1cc(-c2ccc(I)cc2)n(-c2ccc(S(N)(=O)=O)cc2)n1

The remaining lines, values behind:

Row | Structure (SMILES) | pIC50 [1] | inhibition [2] | pIC50 [3]
5 | CS(=O)(=O)c1ccc(-n2nc(C(F)(F)F)cc2-c2ccc(I)cc2)cc1 | < 5.40 | inactive | 7.52
6 | COC(=O)c1cc(-c2ccc(I)cc2)n(-c2ccc(S(N)(=O)=O)cc2)n1 | < 5.40 |  | 
7 | NS(=O)(=O)c1ccc(-n2nc(CCC(=O)O)cc2-c2cccc(I)c2)cc1 | < 5.40 |  | 
8 | NS(=O)(=O)c1ccc(-n2nc(CCC(=O)O)cc2-c2ccc(I)cc2)cc1 | < 5.40 |  | 
9 | COC(=O)c1cc(-c2ccc(I)cc2)n(-c2ccc(S(C)(=O)=O)cc2)n1 | < 5.40 |  | 
